Measured values taken from US20260248809A1, “ESTRADIOL PRODRUGS AND METHODS OF USE THEREOF” (UNIVERSITY OF MARYLAND, BALTIMORE, priority 2022, published 2026).

Legend:
Format in all cases: in vivo, mouse
mice = assay: Acoustic startle response after traumatic foot shock stress; conditions: acute foot shock stress, 10 mm silastic implant
From the text: Determine the role of E2 in traumatic stress-induced changes in startle response in males and females. Heightened startle reactivity is a DSM diagnostic criteria for PTSD. Individuals suffering from PTSD frequently report subjective elevations in startle response and objective studies have described increased startle reactivity in individuals with PTSD. Moreover, physiological startle response is correlated with the severity of self-reported hyperarousal symptom domains and attenuated by interventions that improve PTSD symptoms. In rodents, like humans, the startle response can be elicited by acoustic stimuli (acoustic startle response, ASR) and involves eyelid closure and skeletal muscle contractions. While ASR is frequently assessed via the eye blink reflex in humans, it can be accurately assayed via whole-body movements in rodents. Importantly, elevated ASR has been reported in rodents following traumatic stress, including electrical shock and social defeat stress. ASR is utilized as a measure of hyperarousal in mice following traumatic stress. Similar to previously described methods, ASR is assessed following acute foot shock stress. Baseline ASR is assessed over 10 startle stimuli (110 dB, pseudo-randomized average inter-stimulus interval of 30 sec). […] Changes in ASR are measured 24 hours after shock using the same startle protocol. […]

male mice [1] = assay: Subthreshold social defeat stress followed by female urine sniffing test (anhedonia); conditions: for stress-induced anhedonia: chronic treatment (silastic implant or minipump), orchiectomized male mice + SSDS; for anhedonia (female urine preference): orchiectomized male mice
Description: (§1) Subthreshold social defeat stress: Retired CD1 breeders are singly housed and used as aggressors. Experimental mice are introduced to the home cage of an aggressor for 2 min to initiate the physical attack phase. Afterward, mice are transferred and housed on the opposite side of the aggressor, in the same cage separated by a perforated Plexiglass divider for 15 mins in order to maintain sensory contact. This process is repeated 3 times over a period of ~50 min.
(§2) Female Urine Preference Test: is performed 24 hours after the social interaction test as using previously described methods. The amount of time mice spent interacting with a cotton-tipped applicator soaked in either fresh male or female mouse urine during a total of 3 minutes is analyzed by an experimenter blind to the experimental groups.
(§3) For the chronic administration paradigms, silastic tubes (1.02 mm inner diameter×2.16 mm outer diameter) were filled with testosterone (10 mm) or 17β-Estradiol (E2; 1,3 and 10 mm; Sigma-Aldrich, St. Louis, MO, USA). Silastic implants were primed in 0.9% saline at 37° C. overnight prior to their subcutaneous use. Letrozole (1 mg/kg/day; Sigma-Aldrich, St. Louis, MO, USA) was dissolved in propylene glycol (MP Biomedicals, Santa Ana, CA, USA) and administered through ALZET minipumps (Model 1002, 0.25 μl/hour, 14 days; Cupertino, CA, USA). DHED (synthesized using previously described methods) was dissolved in 0.9% saline and administered through ALZET minipumps (Model 1002, 0.25 μl/hour, 14 days; Cupertino, CA, USA) at a dose of […]. Flutamide was administered through 1.5 mg slow-release subcutaneous pellets (Innovative Research of America, Sarasota, FL, USA). For acute administration, 17β-Estradiol (E2; 10 and […]) was dissolved in sesame oil (4 ml/kg, s.c.; Sigma-Aldrich, St. Louis, MO, USA).
(§4) Retired CD1 breeders were singly housed and used as aggressors. Two days prior to the start of the experiment, experimental mice were also singly housed. The stress procedure was performed using previously described methods. Briefly, experimental mice were introduced to the home cage of an aggressor for 2 min to initiate the physical attack phase. Afterward, mice were transferred and housed on the opposite side of the aggressor, in the same cage separated by a perforated Plexiglass divider for 15 mins in order to maintain sensory contact. This process was repeated 3 times over a period of ~50 min. Following the completion of the third cycle, mice were placed back in their home cages.
(§5) Acute E2 was administered 45 min prior to the initiation of stress or 5 min after the completion of stress. For the optogenetic stimulation, ChR2 and YFP-injected mice received a 4 Hz, 5 ms pulse width, 10-15 mW 470 nm light stimulation for 45 min prior to the initiation of stress. This stimulation paradigm was shown previously to increase synaptic transmission. The optogenetic set up consisted of an LED driver paired with a fiber-coupled LED light source attached to a bifurcated optogenetic path cable (400 μm, 0.49 NA; ThorLabs, Newton NJ, USA).
as §2, with “FUST procedure was” for “Female Urine Preference Test: is”, “and 48 hours after stress. FUST was performed” for “as”, “was” for “is”

[2] = Body, testis and seminal vesicle weights after hormonal treatments
Description: as §3
Subcutaneous implantations were performed during the same time as the orchiectomies. The surgical area was thoroughly cleaned with Betadine solution (10% povidone-iodine surgical scrub) followed by 70% ethanol. A small, approximately 1-cm incision was made between the scapulae using a pair of small sterile surgical scissors. Hemostats were then inserted and spread laterally to the incision to create a cavity in the subcutaneous space in which ALZET mini-osmotic pumps or silastic implants were inserted for continuous drug/vehicle delivery. The skin was closed with suturing.

male mice [3] = assay: Subthreshold social defeat stress (SSDS) followed by social interaction test; conditions: for stress-induced social interaction deficits: chronic treatment (silastic implant or minipump), orchiectomized male mice + SSDS; for social interaction (sociability) deficits: orchiectomized male mice
Description: as §1
(§6) Social Interaction: Mice are placed in a rectangular box (40 cm length×30 cm width×35 cm height; Stoelting, IL) divided into three compartments (two equal-sized end-chambers and a middle chamber) for five minute habituation phase (10-15 lux). After the habituation phase, two small wire cages are introduced into the two end chambers, one containing an unfamiliar, non-aggressive CD1 mouse and the other remaining empty. The amount of time mice spent sniffing each cage during the five-min test is assessed using CleverSys tracking software (CleverSys, Inc, Reston VA, USA).
as §3, §4, §5
as §6, with “Social interaction was performed 24 hours following subthreshold social defeat or inescapable foot-shock stress. For the habituation phase, mice were” for “Social Interaction: Mice are”, “five minutes” for “five minute habituation phase”, “cages were” for “cages are”, “test was” for “test is”

[4] = acute administration 5 min after SSDS
[5] = acute s.c. administration 45 min prior to SSDS

Row | Structure (SMILES) | increased startle after stress+orchiectomy (mice) | stress-induced anhedonia (male mice [1]) | anhedonia (female urine preference) (male mice [1]; [4]) | anhedonia (female urine preference) (male mice [1]; [5]) | body weight ([2]; chronic treatment) | seminal vesicle weight ([2]; chronic treatment) | relative seminal vesicle weights ([2]; s.c. treatment, compared to vehicle (saline) control) | stress-induced social interaction deficits (male mice [3]) | social interaction (sociability) deficits (male mice [3]; [4]) | social interaction (sociability) deficits (male mice [3]; [5]) | stress-susceptible phenotype induced by low testosterone (male mice [3]; orchiectomized mice on low dose testosterone + SSDS) | testis weight ([2]; chronic treatment) | maladaptive behaviors (social interaction, anhedonia) (male mice [3]; chronic treatment, gonadally intact or non-stressed mice)
1 | C[C@]12CC[C@@H]3c4ccc(O)cc4CC[C@H]3[C@@H]1CC[C@@H]2O [Example E2, 17β-Estradiol] | recoverable | reversed | reversed only the anhedonia phenotype | prevented | increased body weight | increased | significant increase | reversed the stress-induced social avoidance | reversed only the anhedonia phenotype | prevented the development of both sociability deficits | completely recover the phenotype | – | –
2 | C[C@]12CC[C@H]3[C@@H](CCC4=CC(=O)CC[C@@]43C)[C@@H]1CC[C@@H]2O [Testosterone, testosterone] | recoverable | reversed the observed maladaptive behaviors | – | – | increased body weight | reversed | – | reversed the observed maladaptive behaviors | – | – | – | decreased testis weight | no effect
